Test results: patent EP0314302A2, “Herbicidal o-carbomethoxy-sulfonylureas” (E.I. DU PONT DE NEMOURS AND COMPANY, priority 1987, dated 1989)

Assays:
Narrowleaf panicum [1] = assay: Test 3 postemergence weed control; assay type: in vivo, P. maximum; conditions: 32 g/ha, scale 0-100
Experimental: Seeds of crabgrass (Digitaria spp), guinea grass (Panicum maximum) and narrowleaf panicum (P. maximum) were planted in 15-cm plastic pots. The weeds were treated postemergence with compound I, formulated in a non-phytotoxic solvent, when the plants had 3 or more leaves and had tillered. The degree of weed control was visually rated 17 days after compound application (DAT). Control ratings were based on a scale of 0 to 100 where 0 = no effect, 20 = minimal control and 100 = complete control.

Itchgrass = assay: Test 5 sugarcane injury and weed control, postemergence; assay type: in vivo, Rottboellia exaltata; conditions: scale 0-100
Experimental: Sugarcane (Saccharum spp.) cuttings which had been pre-sprouted were planted in 15-cm plastic pots. Narrowleaf panicum (Panicum maximum), large crabgrass (Digitaria sanguinalis), guineagrass (P. maximum) and itchgrass (Rottboellia exaltata) were seeded in individual 15-cm plastic pots.
The pots were treated postemergence when the plants had 3 to 4 leaves with 2 to 3 tillers with Compound I formulated in a non-phytotoxic carrier made up of acetone-humectant-water-surfactant (22:1:1:0.05 v/v). The degree of crop injury and weed control was visually rated 27 days after treatment (DAT). Plant injury ratings are based on the scale of 0 to 100 where 0 = no effect, 20 = minimal injury and 100 = complete control.

Annual bluegrass = assay: Test 8 postemergence safety to pineapple, turfs and weed control; assay type: in vivo; conditions: scale 0-100
Text: (§1) The object of this test was to evaluate the compound of this invention for postemergence safety to pineapple, turfs and weed control. Climax timothy, Kentucky bluegrass, forage fescue, Kentucky fescue, bermudagrass, bentgrass, annual bluegrass, bahiagrass, purple nutsedge, yellow nutsedge, large crabgrass, perennial ryegrass, annual ryegrass, galium and pineapple were sprayed postemergence with the compound in a non-phytotoxic solvent. Plants were visually rated 36 days after treatment (DAT). Injury ratings were based on the scale of 0 to 100 where 0 = no effect, 20 = minimal effect and 100 = complete control.

Annual ryegrass = assay: as above; assay type: in vivo; conditions: scale 0-100
Text: as §1

Bentgrass = assay: as above; assay type: in vivo; conditions: scale 0-100
Text: as §1

Bermudagrass = assay: as above; assay type: in vivo; conditions: scale 0-100
Text: as §1

Forage fescue = assay: as above; assay type: in vivo; conditions: scale 0-100
Text: as §1

Galium = assay: as above; assay type: in vivo; conditions: scale 0-100
Text: as §1

Kentucky bluegrass = assay: as above; assay type: in vivo; conditions: scale 0-100
Text: as §1

Large crabgrass = assay: as above; assay type: in vivo; conditions: scale 0-100
Text: as §1

Perennial ryegrass = assay: as above; assay type: in vivo; conditions: scale 0-100
Text: as §1

Pineapple = assay: as above; assay type: in vivo; conditions: scale 0-100
Text: as §1

Purple nutsedge = assay: as above; assay type: in vivo; conditions: scale 0-100
Text: as §1

Yellow nutsedge = assay: as above; assay type: in vivo; conditions: scale 0-100
Text: as §1

Wild radish = assay: Test 10 postemergence safety to crops and weed control; assay type: in vivo, Raphanus raphanistrum; conditions: 16 g/ha, scale 0-100
Experimental: The object of these tests was to evaluate the compound of this invention for postemergence safety to crops and weed control. Seedling and budded Macedine grapes were grown in 11.4-cm pots. Flax, green foxtail (Setaria viridis), "Morex" barley, wild oats (Avena fatua), "Era" wheat, annual ryegrass (Lolium multiflorum), wild radish (Raphanus raphanistrum), rape, sunflower, chickweed (Stellaria media) and wild buckwheat (Polygonum convolvulus) were seeded in windowsill pots.
The plants were sprayed postemergence with Compound I in a non-phytotoxic solvent. Plants were visually rated 15 and 27 days after treatment (DAT). Injury and weed control ratings were based on the scale of 0 to 100 where 0 = no effect, 20 minimal control and 100 = complete control.

Sandbur = assay: Test 11 windowsill flats, postemergence; assay type: in vivo, Cenchrus echinatus; conditions: Postemergence 32 g/ha, 0.25% X-77 surfactant, scale 0-100
Experimental: (§2) Budded citrus seedlings were planted in 30-liter plastic pots which were also seeded with sandbur, guineagrass, narrowleaf panicum, common ragweed, yellow nutsedge, purple nutsedge and bindweed. Compound I was applied preemergence and postemergence to the weeds. Treatments were sprayed to simulate the trunk-to-trunk herbicide application method used in some citrus groves. The compound was also applied postemergence to weeds grown in windowsill flats. The flats were filled with planting medium and seeded with morningglory (Ipomoea spp.). purple nutsedge (Cyperus rotundus), pigweed (Amaranthus spp.), bindweed (Convolvulus spp.), narrowleaf panicum (Panicum maximum), common ragweed (Ambrosia artemisiifolia), sandbur (Cenchrus echinatus), itchgrass (Rottboellia exaltata), johnsongrass (Sorghum halepense), guineagrass (Panicum maximum), smooth crabgrass (Digitaria ischaemum), broadleaf signalgrass (Brachiaria platyphylla), bermudagrass (Cynodon dactylon), goosegrass (Eleusine indica), large crabgrass (Digitaria sanguinalis) and yellow nutsedge (Cyperus esculentus).
(§3) The compound was formulated and sprayed with 0.25% X-77 surfactant in water. Plants were visually rated 21 and 29 days after treatment and compared with appropriate controls. Injury ratings were based on the scale of 0 to 100, where 0 indicates no effect, 20 indicates minimum effect and 100 indicates complete control. […]

Guineagrass = assay: Test 11 windowsill flats, postemergence; assay type: in vivo, Panicum maximum; conditions: Postemergence 32 g/ha, 0.25% X-77 surfactant, scale 0-100
Experimental: as §2, §3

Narrowleaf panicum [2] = assay: Test 11 windowsill flats, postemergence; assay type: in vivo, Panicum maximum; conditions: Postemergence 32 g/ha, 0.25% X-77 surfactant, scale 0-100
Experimental: as §2, §3

Trumpetcreeper = assay: Test 12 over-the-top application, postemergence; assay type: in vivo, Campsis radicans; conditions: 26 days after treatment, scale 0-100
Text: The object of this test was to evaluate the safety of sour lemon to the over-the-top application of Compound I and control of lantana (Lantana camara) and trumpetcreeper (Campsis radicans). Plants were sprayed postemergence with Compound I formulated in a non-phytotoxic solvent. Treated plants were visually rated 26 days after treatment and compared with appropriate controls. Injury ratings were based on the scale of 0 to 100, where 0 indicates no effect, 20 indicates minimal effect and 100 indicates complete control.

## COC(=O)c1cccnc1S(=O)(=O)NC(=O)Nc1nc(OC)cc(OC)n1 [Compound I, 2-[[(4,6-dimethoxypyrimidin-2-yl)aminocarbonyl]aminosulfonyl]-3-pyridinecarboxylic acid, methyl ester]
Narrowleaf panicum [1]
  Control Rating 17 DAT: 90
Itchgrass; 8 g/ha
  Plant Injury Rating 27 DAT: 80
Itchgrass; 16 g/ha
  Plant Injury Rating 27 DAT: 80
Itchgrass; 32 g/ha
  Plant Injury Rating 27 DAT: 100
Itchgrass; 64 g/ha
  Plant Injury Rating 27 DAT: 100
Annual bluegrass; 16 g/ha
  Plant Injury Rating 36 DAT: 100
Annual bluegrass; 32 g/ha
  Plant Injury Rating 36 DAT: 100
Annual ryegrass; 16 g/ha
  Plant Injury Rating 36 DAT: 100
Annual ryegrass; 32 g/ha
  Plant Injury Rating 36 DAT: 100
Bentgrass; 16 g/ha
  Plant Injury Rating 36 DAT: 70
Bentgrass; 32 g/ha
  Plant Injury Rating 36 DAT: 100
Bermudagrass; 16 g/ha
  Plant Injury Rating 36 DAT: 0
Bermudagrass; 32 g/ha
  Plant Injury Rating 36 DAT: 0
Forage fescue; 16 g/ha
  Plant Injury Rating 36 DAT: 100
Forage fescue; 32 g/ha
  Plant Injury Rating 36 DAT: 100
Galium; 16 g/ha
  Plant Injury Rating 36 DAT: 100
Galium; 32 g/ha
  Plant Injury Rating 36 DAT: 100
Kentucky bluegrass; 16 g/ha
  Plant Injury Rating 36 DAT: 100
Kentucky bluegrass; 32 g/ha
  Plant Injury Rating 36 DAT: 100
Large crabgrass; 16 g/ha
  Plant Injury Rating 36 DAT: 60
Large crabgrass; 32 g/ha
  Plant Injury Rating 36 DAT: 80
Perennial ryegrass; 16 g/ha
  Plant Injury Rating 36 DAT: 100
Perennial ryegrass; 32 g/ha
  Plant Injury Rating 36 DAT: 100
Pineapple; 16 g/ha
  Plant Injury Rating 36 DAT: 0
Pineapple; 32 g/ha
  Plant Injury Rating 36 DAT: 0
Purple nutsedge; 16 g/ha
  Plant Injury Rating 36 DAT: 50
Purple nutsedge; 32 g/ha
  Plant Injury Rating 36 DAT: 100
Yellow nutsedge; 16 g/ha
  Plant Injury Rating 36 DAT: 60
Yellow nutsedge; 32 g/ha
  Plant Injury Rating 36 DAT: 100
Wild radish
  Plant Injury Rating 15 DAT: 100
Sandbur
  Injury ratings: 100
Guineagrass
  Injury ratings: 100
Narrowleaf panicum [2]
  Injury ratings: 90
Trumpetcreeper; 8 g/ha
  Injury ratings: 0
Trumpetcreeper; 16 g/ha
  Injury ratings: 20
Trumpetcreeper; 32 g/ha
  Injury ratings: 40
